Measured values taken from ChEMBL document CHEMBL1142326, “2-Amino-N-pyrimidin-4-ylacetamides as A2A receptor antagonists: 1. Structure-activity relationships and optimization of heterocyclic substituents” (J Med Chem, 2008).

Columns and labels:
Adenosine receptor A1 = target: T1, Adenosine receptor A1 (Homo sapiens, UniProt P30542); assay: Displacement of [3H]DPCPX from human adenosine A1 receptor expressed in HEK293 cells; type: cell-based
T1 sequence (P30542 whole entry): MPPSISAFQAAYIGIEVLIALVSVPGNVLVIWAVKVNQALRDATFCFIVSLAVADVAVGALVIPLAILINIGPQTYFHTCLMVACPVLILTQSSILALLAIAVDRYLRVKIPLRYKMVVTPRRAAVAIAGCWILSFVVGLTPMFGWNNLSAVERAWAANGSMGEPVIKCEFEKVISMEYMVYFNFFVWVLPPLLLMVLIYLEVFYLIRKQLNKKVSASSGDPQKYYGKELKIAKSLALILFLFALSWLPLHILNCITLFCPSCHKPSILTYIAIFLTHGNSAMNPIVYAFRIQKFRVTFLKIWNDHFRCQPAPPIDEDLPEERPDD

Adenosine receptor A2a [1] = target: T2, Adenosine receptor A2a (Homo sapiens, UniProt P29274); assay: Displacement of [3H]ZM241385 from human adenosine A2A receptor expressed in HEK293 cells; type: cell-based
T2 sequence (P29274 whole entry): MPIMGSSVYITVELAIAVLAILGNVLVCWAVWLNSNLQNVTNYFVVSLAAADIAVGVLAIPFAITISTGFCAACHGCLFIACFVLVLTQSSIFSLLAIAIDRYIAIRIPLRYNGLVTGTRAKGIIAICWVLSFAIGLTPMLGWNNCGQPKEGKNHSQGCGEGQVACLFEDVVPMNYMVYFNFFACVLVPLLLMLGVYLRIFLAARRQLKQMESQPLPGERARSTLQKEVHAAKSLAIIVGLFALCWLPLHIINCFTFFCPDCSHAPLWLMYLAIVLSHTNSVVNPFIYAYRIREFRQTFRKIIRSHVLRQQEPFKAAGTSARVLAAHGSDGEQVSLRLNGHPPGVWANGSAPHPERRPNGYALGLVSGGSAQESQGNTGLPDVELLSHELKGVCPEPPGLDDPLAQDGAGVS

Adenosine receptor A2a [2] = target: T2, Adenosine receptor A2a; assay: Antagonist activity at human adenosine A2A receptor by cAMP assay; type: functional
Cytochrome P450 3A4 = Cytochrome P450 3A4 (Homo sapiens, UniProt P08684); assay: Inhibition of CYP3A4; type: ADME
Chain of Cytochrome P450 3A4 (P08684 whole entry): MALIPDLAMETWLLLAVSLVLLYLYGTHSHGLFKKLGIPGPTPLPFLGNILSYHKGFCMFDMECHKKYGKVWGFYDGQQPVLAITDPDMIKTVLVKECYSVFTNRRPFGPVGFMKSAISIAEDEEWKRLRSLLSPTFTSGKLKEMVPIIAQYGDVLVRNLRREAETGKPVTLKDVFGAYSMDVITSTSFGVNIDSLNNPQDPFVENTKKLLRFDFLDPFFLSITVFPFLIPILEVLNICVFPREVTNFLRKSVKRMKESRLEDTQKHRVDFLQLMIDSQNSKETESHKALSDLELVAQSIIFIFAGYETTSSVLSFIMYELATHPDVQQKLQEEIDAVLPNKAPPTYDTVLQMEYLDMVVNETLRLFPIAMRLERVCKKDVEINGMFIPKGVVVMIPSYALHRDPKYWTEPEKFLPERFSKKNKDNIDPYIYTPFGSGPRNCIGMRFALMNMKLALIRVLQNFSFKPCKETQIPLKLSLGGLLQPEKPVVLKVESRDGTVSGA

Row | Compound | Ki (Adenosine receptor A1) | Ki (Adenosine receptor A2a [1]) | IC50 (Adenosine receptor A2a [2]) | IC50 (Cytochrome P450 3A4)
1 | Cc1cc(C)n(-c2cc(NC(=O)CN3CCN(C)CC3)nc(-c3ccccn3)n2)n1 | 4.4 µM | 0.0255 µM |  | 
2 | CN1CCN(CC(=O)Nc2cc(-c3ccccn3)nc(-c3cccs3)n2)CC1 | 0.389 µM | 0.024 µM |  | 
3 | CN1CCN(CC(=O)Nc2cc(-n3cccn3)nc(-c3ccccn3)n2)CC1 | 0.93 µM | 0.0534 µM |  | 
4 | Cc1cc(C)n(-c2cc(NC(=O)CN3CCN(C)CC3)nc(-c3ccc(C)o3)n2)n1 | 0.85 µM | 0.012 µM |  | 
5 | Cc1ccc(-c2nc(NC(=O)CN3CCN(C)CC3)cc(-c3nccs3)n2)o1 | 0.72 µM | 0.051 µM |  | 
6 | Cc1cc(C)n(-c2nc(NC(=O)CN3CCN(C)CC3)cc(-c3cnco3)n2)n1 | > 10 µM | 1 µM |  | 
7 | Cc1ccc(-c2nc(NC(=O)CN3CCN(C)CC3)cc(-n3cccn3)n2)o1 | 0.85 µM | 0.135 µM |  | 
8 | Cc1ccc(-c2nc(NC(=O)CN3CCN(C)CC3)cc(-n3nccc3C)n2)o1 | 0.39 µM | 0.014 µM |  | 
9 | CN1CCN(CC(=O)Nc2cc(-c3nccs3)nc(-c3ccco3)n2)CC1 |  |  | 0.103 µM | 
10 | CN1CCN(CC(=O)Nc2cc(-n3cccn3)nc(-c3nccs3)n2)CC1 | 0.85 µM | 0.017 µM |  | 
11 | Cc1cc(C)n(-c2cc(NC(=O)CN3CCN(C)CC3)nc(-c3nccs3)n2)n1 | 2 µM | 0.009 µM |  | 13 µM
12 | CN1CCN(CC(=O)Nc2cc(-n3cccn3)nc(-n3cccn3)n2)CC1 | 4.2 µM | 0.131 µM |  | 
13 | Cc1cc(C)n(-c2nc(NC(=O)CN3CCN(C)CC3)cc(-c3nccs3)n2)n1 | 1.7 µM | 0.027 µM |  | 
14 | Cc1cc(C)n(-c2nc(NC(=O)CN3CCN(C)CC3)cc(-c3ocnc3C)n2)n1 | > 10 µM | 0.19 µM |  | 
